Laboratory results taken from ChEMBL document CHEMBL1144507, “Synthesis and antifungal activity of (Z)-5-arylidenerhodanines” (2007).
Values after ≈ are worked out from the molar mass of the structure shown.

Columns and labels:
[1] = tested on: Candida tropicalis; experiment: Antifungal activity against Candida tropicalis C131-1997 after 48 hrs; format: functional
[2] = tested on: Candida parapsilosis; experiment: Antifungal activity against Candida parapsilosis C124-2000 after 48 hrs; format: functional; conditions: Lodderomyces parapsilosis
[3] = tested on: Trichophyton benhamiae; experiment: Antifungal activity against Trichophyton mentagrophytes C539 after 48 hrs; format: functional, Arthroderma benhamiae
[4] = tested on: Candida albicans; experiment: Antifungal activity against Candida albicans ATCC 10231 after 48 hrs; format: functional; conditions: ATCC 10231, 48 h
[5] = tested on: Torulaspora delbrueckii; experiment: Antifungal activity against Candida coliculosa C122-2000 after 48 hrs; format: functional
[6] = tested on: Trichophyton benhamiae; experiment: Antifungal activity against Trichophyton mentagrophytes C943 after 48 hrs; format: functional, Arthroderma benhamiae
[7] = tested on: Cryptococcus neoformans; experiment: Antifungal activity against […] ATCC 32264 after 48 hrs; format: functional; conditions: ATCC 32264, 48 h
[8] = tested on: Candida albicans; experiment: Antifungal activity against Candida albicans C127-2000 after 48 hrs; format: functional
[9] = tested on: Trichophyton benhamiae; experiment: Antifungal activity against Trichophyton mentagrophytes C364 after 48 hrs; format: functional, Arthroderma benhamiae
[10] = tested on: Candida albicans; experiment: Antifungal activity against Candida albicans C129-2000 after 48 hrs; format: functional
[11] = tested on: Cryptococcus neoformans; experiment: Antifungal activity against […] IM 972751 after 48 hrs; format: functional
[12] = tested on: Kluyveromyces marxianus; experiment: Antifungal activity against Candida kefyr C123-2000 after 48 hrs; format: functional
[13] = tested on: Candida albicans; experiment: Antifungal activity against Candida albicans C130-2000 after 48 hrs; format: functional
[14] = tested on: Cryptococcus neoformans; experiment: Antifungal activity against […] IM 031706 after 48 hrs; format: functional
[15] = tested on: Nannizzia gypsea; experiment: Antifungal activity against Microsporum gypseum C115 after 48 hrs; format: functional
[16] = tested on: Cryptococcus neoformans; experiment: Antifungal activity against […] IM 983036 after 48 hrs; format: functional
[17] = tested on: Cryptococcus neoformans; experiment: Antifungal activity against […] IM 031631 after 48 hrs; format: functional; conditions: Cryptococcus neoformans, 48 h
[18] = tested on: Pichia kudriavzevii; experiment: Antifungal activity against Candida krusei C117-2000 after 48 hrs; format: functional
[19] = tested on: Trichophyton rubrum; experiment: Antifungal activity against Trichophyton rubrum C113 after 48 hrs; format: functional
[20] = tested on: Cryptococcus neoformans; experiment: Antifungal activity against Candida neoformans IM 983040 after 48 hrs; format: functional
[21] = tested on: Cryptococcus neoformans; experiment: Antifungal activity against […] IM 961951 after 48 hrs; format: functional
[22] = tested on: Cryptococcus neoformans; experiment: Antifungal activity against […] IM 042074 after 48 hrs; format: functional
[23] = tested on: Cryptococcus neoformans; experiment: Antifungal activity against […] IM 00319 after 48 hrs; format: functional
[24] = tested on: Nakaseomyces glabratus; experiment: Antifungal activity against Candida glabrata C115-2000 after 48 hrs; format: functional
[25] = tested on: Trichophyton benhamiae; experiment: Antifungal activity against Trichophyton mentagrophytes ATCC 9972 after 48 hrs; format: functional, Arthroderma benhamiae; conditions: ATCC 9972, 48 h
[26] = tested on: Aspergillus flavus; experiment: Antifungal activity against Aspergillus flavus ATCC 9170 after 48 hrs; format: functional; conditions: ATCC 9170, 48 h
[27] = tested on: Saccharomyces cerevisiae; experiment: Antifungal activity against Saccharomyces cerevisiae ATCC 9763 after 48 hrs; format: functional; conditions: ATCC 9763, 48 h
[28] = tested on: Aspergillus niger; experiment: Antifungal activity against Aspergillus niger ATCC 9029 after 48 hrs; format: functional; conditions: ATCC 9029, 48 h
[29] = tested on: Trichophyton benhamiae; experiment: Antifungal activity against Trichophyton mentagrophytes C738 after 48 hrs; format: functional, Arthroderma benhamiae
[30] = tested on: Cryptococcus neoformans; experiment: Antifungal activity against Cryptococcus neoformans ATCC 32264 after 48 hrs; format: functional; conditions: ATCC 32264, 48 h
[31] = tested on: Candida albicans; experiment: Antifungal activity against Candida albicans C126-2000 after 48 hrs; format: functional
[32] = tested on: Candida albicans; experiment: Antifungal activity against Candida albicans C128-2000 after 48 hrs; format: functional
[33] = tested on: Candida albicans; experiment: Antifungal activity against Candida albicans C125-2000 after 48 hrs; format: functional
[34] = tested on: Aspergillus fumigatus; experiment: Antifungal activity against Aspergillus fumigatus ATCC 26934 after 48 hrs; format: functional; conditions: ATCC 26934, 48 h
[35] = tested on: Cryptococcus neoformans; experiment: Antifungal activity against […] IM 972724 after 48 hrs; format: functional
[36] = tested on: Clavispora lusitaniae; experiment: Antifungal activity against Candida lusitaniae C131-2000 after 48 hrs; format: functional
[37] = tested on: Cryptococcus neoformans; experiment: Antifungal activity against […] IM 052470 after 48 hrs; format: functional
[38] = tested on: Trichophyton benhamiae; experiment: Antifungal activity against Trichophyton mentagrophytes C108 after 48 hrs; format: functional, Arthroderma benhamiae

O=C1NC(=S)S/C1=C\c1ccc(C(F)(F)F)cc1
MFC [1]: 31.2 µg/mL (≈ 108 µM)
MIC [1]: 15.6 µg/mL (≈ 53.9 µM)
MIC50 [1]: 7.8 µg/mL (≈ 27 µM)
MIC80 [1]: 15.6 µg/mL (≈ 53.9 µM)
MFC [2]: 62.5 µg/mL (≈ 216 µM)
MIC [2]: 31.2 µg/mL (≈ 108 µM)
MIC50 [2]: 3.9 µg/mL (≈ 13.5 µM)
MIC80 [2]: 31.2 µg/mL (≈ 108 µM)
MIC [3]: 1.95 µg/mL (≈ 6.74 µM)
MIC [4]: 15.6 µg/mL (≈ 53.9 µM)
MFC [5]: 62.5 µg/mL (≈ 216 µM)
MIC [5]: 31.2 µg/mL (≈ 108 µM)
MIC50 [5]: 15.6 µg/mL (≈ 53.9 µM)
MIC80 [5]: 31.2 µg/mL (≈ 108 µM)
MIC [6]: 0.97 µg/mL (≈ 3.35 µM)
MFC [7]: 7.8 µg/mL (≈ 27 µM)
MIC [7]: 3.9 µg/mL (≈ 13.5 µM)
MIC50 [7]: 3.9 µg/mL (≈ 13.5 µM)
MIC80 [7]: 3.9 µg/mL (≈ 13.5 µM)
MFC [8]: 31.2 µg/mL (≈ 108 µM)
MIC [8]: 15.6 µg/mL (≈ 53.9 µM)
MIC50 [8]: 7.8 µg/mL (≈ 27 µM)
MIC80 [8]: 15.6 µg/mL (≈ 53.9 µM)
MIC [9]: 0.97 µg/mL (≈ 3.35 µM)
MFC [10]: 31.2 µg/mL (≈ 108 µM)
MIC [10]: 31.2 µg/mL (≈ 108 µM)
MIC50 [10]: 15.6 µg/mL (≈ 53.9 µM)
MIC80 [10]: 31.2 µg/mL (≈ 108 µM)
MFC [11]: 7.8 µg/mL (≈ 27 µM)
MIC [11]: 7.8 µg/mL (≈ 27 µM)
MIC50 [11]: 1.9 µg/mL (≈ 6.57 µM)
MIC80 [11]: 3.9 µg/mL (≈ 13.5 µM)
MFC [12]: 15.6 µg/mL (≈ 53.9 µM)
MIC [12]: 7.8 µg/mL (≈ 27 µM)
MIC50 [12]: 3.9 µg/mL (≈ 13.5 µM)
MIC80 [12]: 7.8 µg/mL (≈ 27 µM)
MFC [13]: 62.5 µg/mL (≈ 216 µM)
MIC [13]: 15.6 µg/mL (≈ 53.9 µM)
MIC50 [13]: 7.8 µg/mL (≈ 27 µM)
MIC80 [13]: 15.6 µg/mL (≈ 53.9 µM)
MFC [14]: 31.2 µg/mL (≈ 108 µM)
MIC [14]: 7.8 µg/mL (≈ 27 µM)
MIC50 [14]: 7.8 µg/mL (≈ 27 µM)
MIC80 [14]: 7.8 µg/mL (≈ 27 µM)
MIC [15]: 15.6 µg/mL (≈ 53.9 µM)
MFC [16]: 7.8 µg/mL (≈ 27 µM)
MIC [16]: 7.8 µg/mL (≈ 27 µM)
MIC50 [16]: 1.9 µg/mL (≈ 6.57 µM)
MIC80 [16]: 7.8 µg/mL (≈ 27 µM)
MIC [17]: 7.8 µg/mL (≈ 27 µM)
MIC50 [17]: 3.9 µg/mL (≈ 13.5 µM)
MIC80 [17]: 7.8 µg/mL (≈ 27 µM)
MFC ([17]; read-out: MFC): 15.6 µg/mL (≈ 53.9 µM)
MFC [18]: 31.2 µg/mL (≈ 108 µM)
MIC [18]: 15.6 µg/mL (≈ 53.9 µM)
MIC50 [18]: 7.8 µg/mL (≈ 27 µM)
MIC80 [18]: 15.6 µg/mL (≈ 53.9 µM)
MIC [19]: 15.6 µg/mL (≈ 53.9 µM)
MFC [20]: 15.6 µg/mL (≈ 53.9 µM)
MIC [20]: 7.8 µg/mL (≈ 27 µM)
MIC50 [20]: 1.9 µg/mL (≈ 6.57 µM)
MIC80 [20]: 7.8 µg/mL (≈ 27 µM)
MFC [21]: 7.8 µg/mL (≈ 27 µM)
MIC [21]: 7.8 µg/mL (≈ 27 µM)
MIC50 [21]: 1.9 µg/mL (≈ 6.57 µM)
MIC80 [21]: 3.9 µg/mL (≈ 13.5 µM)
MFC [22]: 7.8 µg/mL (≈ 27 µM)
MIC [22]: 7.8 µg/mL (≈ 27 µM)
MIC50 [22]: 1.9 µg/mL (≈ 6.57 µM)
MIC80 [22]: 7.8 µg/mL (≈ 27 µM)
MFC [23]: 7.8 µg/mL (≈ 27 µM)
MIC [23]: 7.8 µg/mL (≈ 27 µM)
MIC50 [23]: 3.9 µg/mL (≈ 13.5 µM)
MIC80 [23]: 3.9 µg/mL (≈ 13.5 µM)
MFC [24]: 15.6 µg/mL (≈ 53.9 µM)
MIC [24]: 3.9 µg/mL (≈ 13.5 µM)
MIC50 [24]: 3.9 µg/mL (≈ 13.5 µM)
MIC80 [24]: 3.9 µg/mL (≈ 13.5 µM)
MIC [25]: 3.9 µg/mL (≈ 13.5 µM)
MIC [26]: 62.5 µg/mL (≈ 216 µM)
MIC [27]: 15.6 µg/mL (≈ 53.9 µM)
MIC [28]: 62.5 µg/mL (≈ 216 µM)
MIC [29]: 1.95 µg/mL (≈ 6.74 µM)
MIC [30]: 3.9 µg/mL (≈ 13.5 µM)
MFC [31]: 31.2 µg/mL (≈ 108 µM)
MIC [31]: 15.6 µg/mL (≈ 53.9 µM)
MIC50 [31]: 15.6 µg/mL (≈ 53.9 µM)
MIC80 [31]: 15.6 µg/mL (≈ 53.9 µM)
MFC [32]: 31.2 µg/mL (≈ 108 µM)
MIC [32]: 15.6 µg/mL (≈ 53.9 µM)
MIC50 [32]: 15.6 µg/mL (≈ 53.9 µM)
MIC80 [32]: 15.6 µg/mL (≈ 53.9 µM)
MFC [33]: 62.5 µg/mL (≈ 216 µM)
MIC [33]: 31.2 µg/mL (≈ 108 µM)
MIC50 [33]: 15.6 µg/mL (≈ 53.9 µM)
MIC80 [33]: 31.2 µg/mL (≈ 108 µM)
MIC [34]: 125 µg/mL (≈ 432 µM)
MFC [35]: 7.8 µg/mL (≈ 27 µM)
MIC [35]: 7.8 µg/mL (≈ 27 µM)
MIC50 [35]: 1.9 µg/mL (≈ 6.57 µM)
MIC80 [35]: 7.8 µg/mL (≈ 27 µM)
MFC [36]: 62.5 µg/mL (≈ 216 µM)
MIC [36]: 31.2 µg/mL (≈ 108 µM)
MIC50 [36]: 15.6 µg/mL (≈ 53.9 µM)
MIC80 [36]: 31.2 µg/mL (≈ 108 µM)
MFC [37]: 12.5 µg/mL (≈ 43.2 µM)
MIC [37]: 7.8 µg/mL (≈ 27 µM)
MIC50 [37]: 1.9 µg/mL (≈ 6.57 µM)
MIC80 [37]: 7.8 µg/mL (≈ 27 µM)
MIC [38]: 1.95 µg/mL (≈ 6.74 µM)
